ChEMBL document CHEMBL4007388, “Synthesis and antiproliferative activity of monocationic arylthiophene derivatives” (Eur J Med Chem, 2017)

How the values were obtained:
CCRF-CEM = assay: Growth inhibition of human CCRF-CEM cells incubated for 48 hrs by sulforhodamine B assay; type: functional
RPMI-8226 = assay: Growth inhibition of human RPMI8226 cells incubated for 48 hrs by sulforhodamine B assay; type: functional; settings: RPMI-8226, 48 h
A549 = assay: Growth inhibition of human A549/ATCC cells incubated for 48 hrs by sulforhodamine B assay; type: functional; settings: A549, 48 h
HOP-92 = assay: Growth inhibition of human HOP92 cells incubated for 48 hrs by sulforhodamine B assay; type: functional; settings: HOP-92, 48 h
NCI-H226 = assay: Growth inhibition of human NCI-H226 cells incubated for 48 hrs by sulforhodamine B assay; type: functional; settings: NCI-H226, 48 h
NCI-H23 = assay: Growth inhibition of human NCI-H23 cells incubated for 48 hrs by sulforhodamine B assay; type: functional; settings: NCI-H23, 48 h
NCI-H322M = assay: Growth inhibition of human NCI-H322M cells incubated for 48 hrs by sulforhodamine B assay; type: functional
NCI-H460 = assay: Growth inhibition of human NCI-H460 cells incubated for 48 hrs by sulforhodamine B assay; type: functional; settings: NCI-H460, 48 h
NCI-H522 = assay: Growth inhibition of human NCI-H522 cells incubated for 48 hrs by sulforhodamine B assay; type: functional; settings: NCI-H522, 48 h
COLO 205 = assay: Growth inhibition of human COLO205 cells incubated for 48 hrs by sulforhodamine B assay; type: functional; settings: COLO 205, 48 h
HCC 2998 = assay: Growth inhibition of human HCC2998 cells incubated for 48 hrs by sulforhodamine B assay; type: functional; settings: HCC 2998, 48 h
HCT-116 = assay: Growth inhibition of human HCT116 cells incubated for 48 hrs by sulforhodamine B assay; type: functional; settings: HCT-116, 48 h
HCT-15 = assay: Growth inhibition of human HCT15 cells incubated for 48 hrs by sulforhodamine B assay; type: functional; settings: HCT-15, 48 h
HT-29 = assay: Growth inhibition of human HT-29 cells incubated for 48 hrs by sulforhodamine B assay; type: functional; settings: HT-29, 48 h
KM12 = assay: Growth inhibition of human KM12 cells incubated for 48 hrs by sulforhodamine B assay; type: functional; settings: KM12, 48 h
SW-620 = assay: Growth inhibition of human SW620 cells incubated for 48 hrs by sulforhodamine B assay; type: functional; settings: SW-620, 48 h
SF-268 = assay: Growth inhibition of human SF268 cells incubated for 48 hrs by sulforhodamine B assay; type: functional; settings: SF-268, 48 h
SF-295 = assay: Growth inhibition of human SF295 cells incubated for 48 hrs by sulforhodamine B assay; type: functional; settings: SF-295, 48 h
SF-539 = assay: Growth inhibition of human SF539 cells incubated for 48 hrs by sulforhodamine B assay; type: functional; settings: SF-539, 48 h
SNB-19 = assay: Growth inhibition of human SNB19 cells incubated for 48 hrs by sulforhodamine B assay; type: functional; settings: SNB-19, 48 h
SNB-75 = assay: Growth inhibition of human SNB75 cells incubated for 48 hrs by sulforhodamine B assay; type: functional; settings: SNB-75, 48 h
U-251 = assay: Growth inhibition of human U251 cells incubated for 48 hrs by sulforhodamine B assay; type: functional; settings: U-251, 48 h
LOX IMVI = assay: Growth inhibition of human LOXIMVI cells incubated for 48 hrs by sulforhodamine B assay; type: functional
Malme-3M = assay: Growth inhibition of human MALME-3M cells incubated for 48 hrs by sulforhodamine B assay; type: functional
M14 = assay: Growth inhibition of human M14 cells incubated for 48 hrs by sulforhodamine B assay; type: functional; settings: M14, 48 h
MDA-MB-435 = assay: Growth inhibition of human MDA-MB-435 cells incubated for 48 hrs by sulforhodamine B assay; type: functional; settings: MDA-MB-435, 48 h
SK-MEL-2 = assay: Growth inhibition of human SK-MEL-2 cells incubated for 48 hrs by sulforhodamine B assay; type: functional; settings: SK-MEL-2, 48 h
SK-MEL-28 = assay: Growth inhibition of human SK-MEL-28 cells incubated for 48 hrs by sulforhodamine B assay; type: functional; settings: SK-MEL-28, 48 h
SK-MEL-5 = assay: Growth inhibition of human SK-MEL-5 cells incubated for 48 hrs by sulforhodamine B assay; type: functional; settings: SK-MEL-5, 48 h
UACC-257 = assay: Growth inhibition of human UACC257 cells incubated for 48 hrs by sulforhodamine B assay; type: functional; settings: UACC-257, 48 h
UACC-62 = assay: Growth inhibition of human UACC62 cells incubated for 48 hrs by sulforhodamine B assay; type: functional; settings: UACC-62, 48 h
OVCAR-3 = assay: Growth inhibition of human OVCAR3 cells incubated for 48 hrs by sulforhodamine B assay; type: functional; settings: OVCAR-3, 48 h
OVCAR-4 = assay: Growth inhibition of human OVCAR4 cells incubated for 48 hrs by sulforhodamine B assay; type: functional; settings: OVCAR-4, 48 h
OVCAR-5 = assay: Growth inhibition of human OVCAR5 cells incubated for 48 hrs by sulforhodamine B assay; type: functional; settings: OVCAR-5, 48 h
OVCAR-8 = assay: Growth inhibition of human OVCAR8 cells incubated for 48 hrs by sulforhodamine B assay; type: functional; settings: OVCAR-8, 48 h
NCI/ADR-RES = assay: Growth inhibition of human NCI/ADR-RES cells incubated for 48 hrs by sulforhodamine B assay; type: functional
SK-OV-3 = assay: Growth inhibition of human SKOV3 cells incubated for 48 hrs by sulforhodamine B assay; type: functional; settings: SK-OV-3, 48 h
786-0 = assay: Growth inhibition of human 786-O cells incubated for 48 hrs by sulforhodamine B assay; type: functional; settings: 786-0, 48 h
A498 = assay: Growth inhibition of human A498 cells incubated for 48 hrs by sulforhodamine B assay; type: functional; settings: A498, 48 h
ACHN = assay: Growth inhibition of human ACHN cells incubated for 48 hrs by sulforhodamine B assay; type: functional
CAKI-1 = assay: Growth inhibition of human Caki1 cells incubated for 48 hrs by sulforhodamine B assay; type: functional; settings: CAKI-1, 48 h
RXF 393 = assay: Growth inhibition of human RXF393 cells incubated for 48 hrs by sulforhodamine B assay; type: functional; settings: RXF 393, 48 h
SN12C = assay: Growth inhibition of human SN12C cells incubated for 48 hrs by sulforhodamine B assay; type: functional
TK-10 = assay: Growth inhibition of human TK10 cells incubated for 48 hrs by sulforhodamine B assay; type: functional; settings: TK-10, 48 h
UO-31 = assay: Growth inhibition of human UO31 cells incubated for 48 hrs by sulforhodamine B assay; type: functional; settings: UO-31, 48 h
PC-3 = assay: Growth inhibition of human PC3 cells incubated for 48 hrs by sulforhodamine B assay; type: functional; settings: PC-3, 48 h
DU-145 = assay: Growth inhibition of human DU145 cells incubated for 48 hrs by sulforhodamine B assay; type: functional; settings: DU-145, 48 h
MCF7 = assay: Growth inhibition of human MCF7 cells incubated for 48 hrs by sulforhodamine B assay; type: functional; settings: MCF7, 48 h
MDA-MB-231 = assay: Growth inhibition of human MDA-MB-231 cells incubated for 48 hrs by sulforhodamine B assay; type: functional; settings: MDA-MB-231, 48 h
Hs-578T = assay: Growth inhibition of human Hs 578T cells incubated for 48 hrs by sulforhodamine B assay; type: functional
BT-549 = assay: Growth inhibition of human BT549 cells incubated for 48 hrs by sulforhodamine B assay; type: functional; settings: BT-549, 48 h
T47D = assay: Growth inhibition of human T47D cells incubated for 48 hrs by sulforhodamine B assay; type: functional
MDA-MB-468 = assay: Growth inhibition of human MDA-MB-468 cells incubated for 48 hrs by sulforhodamine B assay; type: functional; settings: MDA-MB-468, 48 h
WI-38 = assay: Cytotoxicity against human WI38 cells assessed as reduction in cell viability after 24 hrs by MTT assay; type: cell-based; settings: WI-38, 24 h
WISH = assay: Cytotoxicity against human WISH cells assessed as reduction in cell viability after 24 hrs by MTT assay; type: cell-based
[1] = Antioxidant activity assessed as superoxide dismutase-like activity by measuring inhibition of superoxide radical anion production at 2 uM by NBT reduction assay relative to control; type: functional
Escherichia coli = assay: Induction of Escherichia coli genomic DNA cleavage after 1 hr by agarose gel electrophoresis method
Homo sapiens = organism: Homo sapiens; assay: Inhibition of PTK in human MCF7 cells at 1 uM preincubated for 2 hrs followed by poly-Glu-Tyr substrate addition by ELISA relative to control; type: cell-based
[2] = Growth inhibition of human NCI60 cells at 10 uM after 48 hrs by SRB assay relative to control; values are per cent of control; settings: NCI60, 48 h

SMILES: COc1ccc(-c2ccc(-c3ccc(C(=N)N)cc3)s2)cc1
- GI50 (CCRF-CEM): 231 nM
- GI50 (RPMI-8226): 282 nM
- GI50 (A549): 226 nM
- GI50 (HOP-92): 750 nM
- GI50 (NCI-H226): 2140 nM
- GI50 (NCI-H23): 665 nM
- GI50 (NCI-H322M): 1240 nM
- GI50 (NCI-H460): 204 nM
- GI50 (NCI-H522): 251 nM
- GI50 (COLO 205): 224 nM
- GI50 (HCC 2998): 1330 nM
- GI50 (HCT-116): 186 nM
- GI50 (HCT-15): 183 nM
- GI50 (HT-29): 196 nM
- GI50 (KM12): 339 nM
- GI50 (SW-620): 211 nM
- GI50 (SF-268): 1740 nM
- GI50 (SF-295): 1270 nM
- GI50 (SF-539): 160 nM
- GI50 (SNB-19): 811 nM
- GI50 (SNB-75): 1710 nM
- GI50 (U-251): 232 nM
- GI50 (LOX IMVI): 198 nM
- GI50 (Malme-3M): 2170 nM
- GI50 (M14): 1410 nM
- GI50 (MDA-MB-435): 924 nM
- GI50 (SK-MEL-2): 2300 nM
- GI50 (SK-MEL-28): 1550 nM
- GI50 (SK-MEL-5): 1390 nM
- GI50 (UACC-257): 2070 nM
- GI50 (UACC-62): 1410 nM
- GI50 (OVCAR-3): 1730 nM
- GI50 (OVCAR-4): 1580 nM
- GI50 (OVCAR-5): 180 nM
- GI50 (OVCAR-8): 321 nM
- GI50 (NCI/ADR-RES): 1490 nM
- GI50 (SK-OV-3): 1960 nM
- GI50 (786-0): 184 nM
- GI50 (A498): 1740 nM
- GI50 (ACHN): 359 nM
- GI50 (CAKI-1): 1500 nM
- GI50 (RXF 393): 1000 nM
- GI50 (SN12C): 189 nM
- GI50 (TK-10): 1970 nM
- GI50 (UO-31): 1670 nM
- GI50 (PC-3): 773 nM
- GI50 (DU-145): 201 nM
- GI50 (MCF7): 175 nM
- GI50 (MDA-MB-231): 267 nM
- GI50 (Hs-578T): 2140 nM
- GI50 (BT-549): 1650 nM
- GI50 (T47D): 300 nM
- GI50 (MDA-MB-468): 192 nM
- IC50 (WI-38): 192000 nM
- IC50 (WISH): 180000 nM
- inhibition [1]: 59.2%
- Activity (Escherichia coli): Dose-dependent effect
- inhibition (Homo sapiens): 19 to 36%
- growth percent at 10 µM [2]: -70.7%

SMILES: O=c1[nH]cc(F)c(=O)[nH]1 [FLUOROURACIL]
- IC50 (WI-38): 9300 nM
- IC50 (WISH): 7100 nM
